Results as given in ChEMBL document CHEMBL5356977, “Exploration of macrocyclic peptide binders to the extracellular CRD domain of human receptor tyrosine kinase-like orphan receptor 1 (ROR1)” (Bioorg Med Chem Lett, 2024).
Blank lines part the entries; values can stand above or below the compound they belong to. Calls of active or inactive are those of the source. No cut-off for these calls is given here. Numbered stars: 1 amine (or outer) side, 2 acyl side, 3 side chain; on linkers, the order of the positions; unused ones are H or OH. Bridge positions count the residues as written; N and C are the ends. Square brackets hold non-standard residues; d marks the D form. Peptide text beside a SMILES is read from it. * marks the point of attachment. X2 = CCCN(C(=O)[C@@H](NC(=O)[C@H]1CCCCN1C)[C@@H](C)CC)[C@H](C[C@@H](OC(C)=O)c1nc(C(=O)N[C@@H](Cc2ccc(NC(=O)[C@H](CCCNC(N)=O)NC(=O)[C@@H](NC(=O)CCCCCN3C(=O)CC(*)C3=O)C(C)C)cc2)C[C@H](C)C(=O)O)cs1)C(C)C; Bip = N[C@@H](Cc1ccc(-c2ccccc2)cc1)C(=O)O; X1 = CN([C@@H](CC(N)O)C(=O)[*:2])[*:1]; NMeF = CN[C@@H](Cc1ccccc1)C(=O)O; Hpg = N[C@H](C(=O)O)c1ccc(O)cc1; Sar = CNCC(=O)O

Experiments:
[1] = target: T1, Inactive tyrosine-protein kinase transmembrane receptor ROR1 (Homo sapiens, UniProt Q01973); experiment: Binding affinity to ROR1 (unknown origin)
T1 sequence (Q01973 whole entry): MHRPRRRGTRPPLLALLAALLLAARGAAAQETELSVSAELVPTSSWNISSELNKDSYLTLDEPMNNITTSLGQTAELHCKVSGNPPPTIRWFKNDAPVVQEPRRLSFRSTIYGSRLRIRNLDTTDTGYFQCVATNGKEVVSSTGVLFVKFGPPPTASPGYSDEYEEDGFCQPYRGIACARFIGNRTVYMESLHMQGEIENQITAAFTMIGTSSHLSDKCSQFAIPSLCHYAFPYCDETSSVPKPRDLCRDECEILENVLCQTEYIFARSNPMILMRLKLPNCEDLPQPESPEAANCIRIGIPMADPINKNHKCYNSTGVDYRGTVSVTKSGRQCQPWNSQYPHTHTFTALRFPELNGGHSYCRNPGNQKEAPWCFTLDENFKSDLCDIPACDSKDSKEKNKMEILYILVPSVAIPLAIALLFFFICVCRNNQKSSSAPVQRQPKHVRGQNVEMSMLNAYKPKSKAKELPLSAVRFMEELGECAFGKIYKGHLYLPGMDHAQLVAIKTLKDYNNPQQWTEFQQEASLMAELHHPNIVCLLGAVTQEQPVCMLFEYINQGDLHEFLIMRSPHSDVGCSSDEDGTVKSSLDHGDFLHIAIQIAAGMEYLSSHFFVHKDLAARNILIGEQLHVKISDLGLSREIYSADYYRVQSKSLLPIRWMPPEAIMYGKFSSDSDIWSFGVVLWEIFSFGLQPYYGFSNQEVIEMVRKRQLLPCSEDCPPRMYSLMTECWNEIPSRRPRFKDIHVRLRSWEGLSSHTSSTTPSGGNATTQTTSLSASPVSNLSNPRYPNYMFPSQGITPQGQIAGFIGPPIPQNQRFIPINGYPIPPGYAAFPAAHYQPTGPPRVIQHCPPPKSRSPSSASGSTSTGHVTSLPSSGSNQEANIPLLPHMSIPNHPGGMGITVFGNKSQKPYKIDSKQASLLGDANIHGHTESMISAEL

[2] = target: T1, Inactive tyrosine-protein kinase transmembrane receptor ROR1; experiment: Induction of ROR1 internalization in human 786-0 cells at 4 to 37 degreeC; format: cell-based
[3] = target: T1, Inactive tyrosine-protein kinase transmembrane receptor ROR1; experiment: Binding affinity to human ROR1 harbouring IGt2 domain at 100 nM relative to control
[4] = target: T1, Inactive tyrosine-protein kinase transmembrane receptor ROR1; experiment: Binding affinity to human ROR1 harbouring CRD domain at 100 nM relative to control
[5] = target: T1, Inactive tyrosine-protein kinase transmembrane receptor ROR1; experiment: Binding affinity to full length human His-tagged ROR1 (937 residues ) assessed as dissociation constant by SPR analysis
[6] = target: Tyrosine-protein kinase transmembrane receptor ROR2 (Homo sapiens, UniProt Q01974); experiment: Binding affinity to full length human His-tagged ROR2 (943 residues ) assessed as dissociation constant by SPR analysis
Sequence of Tyrosine-protein kinase transmembrane receptor ROR2 (Q01974 whole entry): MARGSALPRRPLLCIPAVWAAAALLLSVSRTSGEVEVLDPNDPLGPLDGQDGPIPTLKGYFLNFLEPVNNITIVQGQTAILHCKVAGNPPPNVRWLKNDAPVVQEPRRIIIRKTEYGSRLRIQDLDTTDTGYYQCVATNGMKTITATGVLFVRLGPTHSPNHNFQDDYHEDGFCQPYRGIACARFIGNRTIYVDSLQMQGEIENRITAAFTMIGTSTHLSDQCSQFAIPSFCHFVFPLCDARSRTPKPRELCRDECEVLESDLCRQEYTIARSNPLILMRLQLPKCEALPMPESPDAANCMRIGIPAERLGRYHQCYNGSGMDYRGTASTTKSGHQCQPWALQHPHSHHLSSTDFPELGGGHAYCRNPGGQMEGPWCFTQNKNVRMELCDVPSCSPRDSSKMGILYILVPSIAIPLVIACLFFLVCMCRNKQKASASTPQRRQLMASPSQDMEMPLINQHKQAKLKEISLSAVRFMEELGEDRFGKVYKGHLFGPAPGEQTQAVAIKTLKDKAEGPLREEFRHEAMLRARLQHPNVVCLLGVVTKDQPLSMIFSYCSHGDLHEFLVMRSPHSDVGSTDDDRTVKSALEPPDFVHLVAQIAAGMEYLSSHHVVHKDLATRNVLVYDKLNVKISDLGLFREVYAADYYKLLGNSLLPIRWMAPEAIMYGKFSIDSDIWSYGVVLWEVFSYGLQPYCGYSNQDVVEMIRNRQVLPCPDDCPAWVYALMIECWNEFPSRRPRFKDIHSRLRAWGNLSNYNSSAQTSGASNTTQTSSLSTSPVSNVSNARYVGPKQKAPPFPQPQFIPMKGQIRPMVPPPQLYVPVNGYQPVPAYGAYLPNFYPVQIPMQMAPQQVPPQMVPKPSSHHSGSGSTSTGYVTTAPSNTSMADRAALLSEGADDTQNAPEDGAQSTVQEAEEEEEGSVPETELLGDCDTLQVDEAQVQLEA

[7] = target: T1, Inactive tyrosine-protein kinase transmembrane receptor ROR1; experiment: Binding affinity to human ROR1 expressed in HEK293 cells by cell based assay
[8] = target: T1, Inactive tyrosine-protein kinase transmembrane receptor ROR1; experiment: Induction of ROR1 internalization in human MDA-MB-231; format: cell-based
[9] = target: T1, Inactive tyrosine-protein kinase transmembrane receptor ROR1; experiment: Induction of ROR1 internalization in human 786-0; format: cell-based
[10] = Proteolytic stability in mouse serum assessed as half life; format: ADME, cell-free
MIA PaCa-2 = experiment: Induction of apoptosis in human MIA PaCa-2 cells assessed as activation of caspase3/7; format: functional, cell-based
[11] = […] stability in mouse serum assessed as half life; format: ADME, cell-free
786-0 = experiment: Antiproliferative activity in human 786-0 cells; format: functional, cell-based
ASPC1 = experiment: Antiproliferative activity in human ASPC1 cells; format: functional, cell-based
JeKo-1 = experiment: Antiproliferative activity in human JeKo-1 cells; format: functional, cell-based
HEK293 = experiment: Antiproliferative activity in HEK293 cells harbouring ROR1; format: toxicity, cell-based; details: Homo sapiens
[12] = target: T1, Inactive tyrosine-protein kinase transmembrane receptor ROR1; experiment: Induction of ROR1 internalization in human MIA PaCa-2; format: cell-based
[13] = Stability in human serum assessed as half life; format: ADME, cell-free
[14] = Stability in mouse serum assessed as half life; format: ADME, cell-free

IC50 [1]: 66 nM
Activity [2]: Active
Activity [3]: 75%
Activity [4]: 125%
Kd [5]: 22 nM
Kd [6]: > 11 nM
Compound: CC(C)C[C@@H]1NC(=O)[C@H](CC(N)O)N(C)C(=O)[C@H](Cc2ccccc2)NC(=O)CNC(=O)[C@H](Cc2ccc(O)cc2)NC(=O)[C@H](Cc2ccccc2)NC(=O)CSC[C@@H](C(N)=O)NC(=O)[C@H](Cc2c[nH]c3ccccc23)NC(=O)[C@H](Cc2ccc(O)cc2)NC1=O (some centres not stated) ({CH2CO}-FYGF[X1]LYWC-NH2; thioether N-9)

IC50 [7]: 6.3 nM
Compound: CC(C)C[C@@H]1NC(=O)[C@H](Cc2ccccc2)N(C)C(=O)[C@H](Cc2ccc(O)cc2)NC(=O)[C@H](Cc2c[nH]c3ccccc23)NC(=O)CNC(=O)[C@H](CO)NC(=O)[C@H](Cc2ccc(O)cc2)NC(=O)[C@H](C(C)C)NC(=O)[C@H](CCCNC(=N)N)NC(=O)[C@H](Cc2ccc(O)cc2)NC(=O)[C@H](Cc2ccccc2)NC(=O)CSC[C@@H](C(=O)NCC(N)=O)NC1=O ({CH2CO}-FYRVYSGWY[NMeF]LCG-NH2; thioether N-12)

Activity [8]: Active
IC50 [7]: 2.2 nM
Activity [9]: Active
Compound: CC(C)C[C@@H]1NC(=O)[C@H](Cc2ccc(O)cc2)NC(=O)[C@H](Cc2c[nH]c3ccccc23)NC(=O)CSC[C@@H](C(=O)NCC(N)=O)NC(=O)[C@H](CC(C)C)NC(=O)[C@H](Cc2ccccc2)N(C)C(=O)[C@H](Cc2ccc(O)cc2)NC(=O)[C@H](Cc2c[nH]c3ccccc23)NC(=O)CNC(=O)[C@H](CO)NC(=O)[C@H](Cc2ccc(O)cc2)NC(=O)[C@H](C(C)C)NC1=O ({CH2CO}-WYLVYSGWY[NMeF]LCG-NH2; thioether N-12)

half-life [10]: > 1440 min
Activity [8]: Active
Activity [9]: Active
Activity [2]: Active
Activity [3]: 68%
Activity [4]: 104%
Kd [6]: 43 nM
half-life [11]: > 1440 min
Compound: CC(C)C[C@@H]1NC(=O)[C@H](Cc2ccc(O)cc2)NC(=O)[C@H](Cc2ccccc2)NC(=O)CSC[C@@H](C(=O)NCC(N)=O)NC(=O)[C@H](CC(C)C)NC(=O)[C@H](Cc2ccccc2)N(C)C(=O)[C@H](Cc2ccc(O)cc2)NC(=O)[C@H](Cc2c[nH]c3ccccc23)NC(=O)CNC(=O)[C@H](CO)NC(=O)[C@H](Cc2ccc(O)cc2)NC(=O)[C@H](C(C)C)NC1=O ({CH2CO}-FYLVYSGWY[NMeF]LCG-NH2; thioether N-12)
Activity (MIA PaCa-2): inactive

IC50 [7]: 12.3 nM
Compound: CC(C)C[C@@H]1NC(=O)[C@H](Cc2ccc(O)cc2)NC(=O)[C@H](Cc2ccccc2)NC(=O)CSC[C@@H](C(=O)NCC(N)=O)NC(=O)[C@H](CC(C)C)NC(=O)[C@H](Cc2ccccc2)N(C)C(=O)[C@H](Cc2ccc(O)cc2)NC(=O)[C@H](Cc2c[nH]c3ccccc23)NC(=O)CNC(=O)[C@H](CO)NC(=O)[C@H](Cc2ccc(O)cc2)NC(=O)[C@H](C)NC1=O ({CH2CO}-FYLAYSGWY[NMeF]LCG-NH2; thioether N-12)

IC50 [7]: 5.2 nM
Compound: CC(C)C[C@@H]1NC(=O)[C@H](Cc2ccccc2)N(C)C(=O)[C@H](Cc2ccc(O)cc2)NC(=O)[C@H](Cc2c[nH]c3ccccc23)NC(=O)CNC(=O)[C@H](CO)NC(=O)[C@H](Cc2ccc(O)cc2)NC(=O)[C@H](C(C)C)NC(=O)[C@@H]2CCCN2C(=O)[C@H](Cc2ccc(O)cc2)NC(=O)[C@H](Cc2ccccc2)NC(=O)CSC[C@@H](C(=O)NCC(N)=O)NC1=O ({CH2CO}-FYPVYSGWY[NMeF]LCG-NH2; thioether N-12)

Compound: CC[C@H](C)[C@H](NC(=O)[C@H]1CCCCN1C)C(=O)N(COC(=O)CC(C)C)[C@H](C[C@@H](OC(C)=O)c1nc(C(=O)N[C@@H](Cc2ccc(C)cc2)C[C@H](C)C(=O)O)cs1)C(C)C [TUBULYSIN]
EC50 (786-0): 0.57 nM

IC50 [7]: 8.6 nM
Compound: CC(C)C[C@@H]1NC(=O)[C@H](Cc2ccc(O)cc2)NC(=O)[C@H](Cc2ccccc2)NC(=O)CSC[C@@H](C(=O)NCC(N)=O)NC(=O)[C@H](CC(C)C)NC(=O)[C@H](Cc2ccccc2)N(C)C(=O)[C@H](Cc2ccc(O)cc2)NC(=O)[C@H](Cc2c[nH]c3ccccc23)NC(=O)CNC(=O)[C@H](Cc2ccc(O)cc2)NC(=O)[C@H](Cc2ccc(O)cc2)NC(=O)[C@H](C(C)C)NC1=O ({CH2CO}-FYLVYYGWY[NMeF]LCG-NH2; thioether N-12)

EC50 (ASPC1): 76.6 nM
EC50 (786-0): 63.7 nM
Compound: CC(C)C[C@@H]1NC(=O)[C@H](Cc2ccc(O)cc2)NC(=O)[C@H](Cc2ccccc2)NC(=O)CSC[C@@H](C(=O)NCC(=O)NCC(=O)NCC(=O)NCC(=O)O)NC(=O)[C@H](CC(C)C)NC(=O)[C@H](Cc2ccccc2)N(C)C(=O)[C@H](Cc2ccc(O)cc2)NC(=O)[C@H](Cc2c[nH]c3ccccc23)NC(=O)CNC(=O)[C@H](CO)NC(=O)[C@H](Cc2ccc(O)cc2)NC(=O)[C@H](C(C)C)NC1=O ({CH2CO}-FYLVYSGWY[NMeF]LCGGGG-OH; thioether N-12)
EC50 (JeKo-1): 89 nM
EC50 (HEK293): 55.3 nM

IC50 [7]: 7.2 nM
Compound: CC(C)C[C@@H]1NC(=O)[C@H](Cc2ccc(O)cc2)NC(=O)[C@H](Cc2ccccc2)NC(=O)CSC[C@@H](C(=O)NCC(N)=O)NC(=O)[C@H](CC(C)C)NC(=O)[C@H](Cc2ccccc2)N(C)C(=O)[C@H](Cc2ccc(O)cc2)NC(=O)[C@H](Cc2c[nH]c3ccccc23)NC(=O)CNC(=O)[C@H](CCC(N)=O)NC(=O)[C@H](Cc2ccc(O)cc2)NC(=O)[C@H](C(C)C)NC1=O ({CH2CO}-FYLVYQGWY[NMeF]LCG-NH2; thioether N-12)

IC50 [7]: 14.4 nM
Compound: CC(C)C[C@@H]1NC(=O)[C@H](Cc2ccc(O)cc2)NC(=O)[C@H](Cc2ccccc2)NC(=O)CSC[C@@H](C(=O)NCC(N)=O)NC(=O)[C@H](CC(C)C)NC(=O)[C@H](Cc2ccccc2)N(C)C(=O)[C@H](Cc2ccc(O)cc2)NC(=O)[C@H](Cc2c[nH]c3ccccc23)NC(=O)CNC(=O)[C@H](CC(=O)O)NC(=O)[C@H](Cc2ccc(O)cc2)NC(=O)[C@H](C(C)C)NC1=O ({CH2CO}-FYLVYDGWY[NMeF]LCG-NH2; thioether N-12)

Activity [12]: inactive
Activity [9]: inactive
Kd [5]: 34 nM
Kd [6]: > 100 nM
Compound: CC(C)C[C@@H]1NC(=O)[C@H](Cc2ccc(O)cc2)NC(=O)[C@H](Cc2ccccc2)NC(=O)CSC[C@@H](C(=O)NCC(=O)NCC(=O)NCC(=O)N[C@H](CCCCNC(=O)c2ccc3c(c2)C(=O)OC32c3ccc(O)cc3Oc3cc(O)ccc32)C(N)=O)NC(=O)[C@H](CC(C)C)NC(=O)[C@H](Cc2ccccc2)N(C)C(=O)[C@H](Cc2ccc(O)cc2)NC(=O)[C@H](Cc2c[nH]c3ccccc23)NC(=O)CNC(=O)[C@H](CO)NC(=O)[C@H](Cc2ccc(O)cc2)NC(=O)[C@H](C(C)C)NC1=O

IC50 [7]: 5.3 nM
Compound: CC(C)C[C@@H]1NC(=O)[C@H](Cc2ccc(O)cc2)NC(=O)[C@H](Cc2ccccc2)NC(=O)CSC[C@@H](C(=O)NCC(N)=O)NC(=O)[C@H](C(C)C)NC(=O)[C@H](Cc2ccccc2)N(C)C(=O)[C@H](c2ccc(O)cc2)NC(=O)[C@H](Cc2c[nH]c3ccccc23)NC(=O)CNC(=O)[C@H](CC(N)=O)NC(=O)[C@H](Cc2ccc(O)cc2)NC(=O)[C@H](C(C)C)NC1=O ({CH2CO}-FYLVYNGW[Hpg][NMeF]VCG-NH2; thioether N-12)

EC50 (ASPC1): 145 nM
EC50 (786-0): 154 nM
Compound: CCCN(C(=O)[C@@H](NC(=O)[C@H]1CCCCN1C)[C@@H](C)CC)[C@H](C[C@@H](OC(C)=O)c1nc(C(=O)N[C@@H](Cc2ccc(NC(=O)[C@H](CCCNC(N)=O)NC(=O)[C@@H](NC(=O)CCCCCN3C(=O)CC(SC[C@H](NC(=O)CNC(=O)CNC(=O)CNC(=O)CNC(=O)[C@@H]4CSCC(=O)N[C@@H](Cc5ccccc5)C(=O)N[C@@H](Cc5ccc(O)cc5)C(=O)N[C@@H](CC(C)C)C(=O)N[C@@H](C(C)C)C(=O)N[C@@H](Cc5ccc(O)cc5)C(=O)N[C@@H](CO)C(=O)NCC(=O)N[C@@H](Cc5c[nH]c6ccccc56)C(=O)N[C@@H](Cc5ccc(O)cc5)C(=O)N(C)[C@@H](Cc5ccccc5)C(=O)N[C@@H](CC(C)C)C(=O)N4)C(N)=O)C3=O)C(C)C)cc2)C[C@H](C)C(=O)O)cs1)C(C)C (some centres not stated) ({CH2CO}-FYLVYSGWY[NMeF]LCGGGGC(X2)-NH2; thioether N-12)
EC50 (JeKo-1): 334 nM
EC50 (HEK293): 27.3 nM

IC50 [7]: 7.2 nM
Compound: CC(C)C[C@@H]1NC(=O)[C@H](Cc2ccc(O)cc2)NC(=O)[C@H](Cc2ccccc2)NC(=O)CSC[C@@H](C(N)=O)NC(=O)[C@H](CC(C)C)NC(=O)[C@H](Cc2ccccc2)N(C)C(=O)[C@H](Cc2ccc(O)cc2)NC(=O)[C@H](Cc2c[nH]c3ccccc23)NC(=O)CNC(=O)[C@H](CO)NC(=O)[C@H](Cc2ccc(O)cc2)NC(=O)[C@H](C(C)C)NC1=O ({CH2CO}-FYLVYSGWY[NMeF]LC-NH2; thioether N-12)

half-life [13]: 66 min
Activity [2]: inactive
Activity [3]: 125%
Activity [4]: 114%
half-life [14]: 31 min
Kd [5]: 3 nM
Kd [6]: > 100 nM
half-life [11]: 1440 min
Compound: CN1CC(=O)N[C@@H](CO)C(=O)N[C@@H](Cc2ccc(-c3ccccc3)cc2)C(=O)NCC(=O)N[C@@H](CCCNC(=N)N)C(=O)N[C@@H](CCCNC(=N)N)C(=O)N[C@@H](CCCNC(=N)N)C(=O)NCC(=O)N[C@H](C(=O)NCC(N)=O)CSCC(=O)N[C@@H](Cc2ccccc2)C(=O)N[C@@H](Cc2ccc(O)cc2)C1=O ({CH2CO}-FY[Sar]S[Bip]GRRRGCG-NH2; thioether N-11)
